The target in assay [1] is full-length human LSD1 (Homo sapiens (Human), UniProt O60341). In words: In vitro enzyme inhibition assay LSD-1 (TR-FRET). The assay is classed as biochemical. The following applies: H3K4me1-biotin peptide. The method, then: This assay determines the ability of a test compound to inhibit LSD1 demethylase activity.
The enzymatic assay of LSD1 activity is based on Time Resolved-Fluorescence Resonance Energy Transfer (TR-FRET) detection.
Plates were read by EnVision Multilabel Reader in TR-FRET mode (excitation at 320 nm, emission at 615 nm and 665 nm) after 1 hour incubation at room temperature.
The ability of the compounds disclosed herein to inhibit LSD1 activity was quantified and the respective IC50 value was determined.

The subject of assay [2] is CD11b expression in THP-1 (AML) cells. The experiment in a line: LSD1 CD11b cellular assay (flow cytometry). The assay is classed as cell-based. The following applies: Homo sapiens, 96 h, THP-1 cells, 4 days. As for the experimental part:
To analyze LSD1 inhibitor efficacy in cells, a CDL11b flow cytometry assay was performed. LSD1 inhibition induces CD11b expression in THP-1 (AML) cells which can be measured by flow cytometry. […] LSD 1 test compounds were serially diluted in DMSO. The dilutions were added to each well accordingly to a final concentration of 0.2% DMSO. The cells were incubated at 37 degrees Celsius in 5% CO2 for 4 days. 250 μL of each well was transferred to a well in a 96 well round bottom plate. The plate was centrifuged at 1200 rpm at 4 degrees Celsius in a Beckman Coulter Alegra 6KR centrifuge for 5 minutes. The media was removed leaving the cells at the bottom of the wells. The cells were washed in 100 μL cold HBSS (Hank's Balanced Salt Solution) plus 2% BSA (Bovine Serum Albumin) solution and centrifuged at 1200 rpm at 4 degrees Celsius for 5 minutes. The wash was removed. […] The cells were centrifuged and washed two times in 100 μl HBSS plus 2% BSA. After the final spin the cells were resuspended in 100 μL HBSS plus 2% BSA containing 1 ug/mL DAPI (4′,6-diamidino-2-phenylindole). The cells were then analyzed by flow cytometry in a BD FACSAria machine. Cells were analyzed for CD11b expression. The percent of CD11b expressing cells for each inhibitor concentration was used to determine an IC50 curve for each compound analyzed.
(In general: In flow cytometry, cells or beads pass a laser one at a time.)

Molecules are shown by their SMILES.

Usually IC50 stands for the point on the concentration scale where inhibition reaches its midpoint. Higher therefore signals weaker potency.

With `CN[C@H]1CCN(C(=O)c2nc(-c3ccc(C#N)c(F)c3)n(-c3cc(F)c4nn(C)cc4c3)c2C)C1` [Example 51, 2-Fluoro-4-[1-(7-fluoro-2-methylindazol-5-yl)-5-methyl-4-[(3S)-3-(methylamino)pyrrolidine-1-carbonyl]imidazol-2-yl]benzonitrile], the IC50 in assay [1] and in assay [2] was less than 100 nM each time.
For the compound `Cc1c(C(=O)N[C@@H]2CCCN(C)C2)nc(-c2ccc(C#N)c(F)c2)n1-c1ccc2nn(C)c(Cl)c2c1` [Example 56, 1-(3-Chloro-2-methylindazol-5-yl)-2-(4-cyano-3-fluorophenyl)-5-methyl-N-[(3R)-1-methylpiperidin-3-yl]imidazole-4-carboxamide], the IC50 in assay [1] and in assay [2] was less than 100 nM each time.
Take `CN(C)[C@H]1CCN(C(=O)c2cn(-c3ccc4nn(C)c(Cl)c4c3)c(-c3ccc(C#N)c(F)c3)n2)C1` [Example 57, 4-[1-(3-Chloro-2-methylindazol-5-yl)-4-[(3S)-3-(dimethylamino)pyrrolidine-1-carbonyl]imidazol-2-yl]-2-fluorobenzonitrile]: the IC50 in assay [1] and in assay [2] was less than 100 nM throughout.
Take `CN(C)[C@H]1CCN(C(=O)c2nc(-c3ccc(C#N)c(F)c3)n(-c3ccc4nn(C)c(Cl)c4c3)c2F)C1` [Example 58, 4-[1-(3-Chloro-2-methylindazol-5-yl)-4-[(3S)-3-(dimethylamino)pyrrolidine-1-carbonyl]-5-fluoroimidazol-2-yl]-2-fluorobenzonitrile]: the concentration for half-maximal inhibition (IC50) in assay [1] and in assay [2] was less than 100 nM each time.
`CN1CCC[C@@H](NC(=O)c2cn(-c3ccc4nn(C)c(Cl)c4c3)c(-c3ccc(C#N)c(F)c3)n2)C1` [Example 59, 1-(3-Chloro-2-methylindazol-5-yl)-2-(4-cyano-3-fluorophenyl)-N-[(3R)-1-methylpiperidin-3-yl]imidazole-4-carboxamide]: the IC50 in assay [1] and in assay [2] was less than 100 nM each time.
`Cc1c(C(=O)N[C@@H]2CCCN(C)C2)nc(-c2ccc(C#N)c(F)c2)n1-c1ccc2nn(C)cc2c1` [Example 60, 2-(4-Cyano-3-fluorophenyl)-5-methyl-1-(2-methylindazol-5-yl)-N-[(3R)-1-methylpiperidin-3-yl]imidazole-4-carboxamide]: the concentration for half-maximal inhibition (IC50) in assay [1] and in assay [2] was less than 100 nM each time.
As for `Cn1nc2ccc(-n3c(-c4ccc(C#N)c(F)c4)nc(C(=O)N4CCC[C@@H](N)C4)c3F)cc2c1Cl` [Example 61, 4-[4-[(3R)-3-Aminopiperidine-1-carbonyl]-1-(3-chloro-2-methylindazol-5-yl)-5-fluoroimidazol-2-yl]-2-fluorobenzonitrile], the half-maximal inhibitory concentration (IC50) in assay [1] and in assay [2] was less than 100 nM in each case.
Take `CN[C@H]1CCN(C(=O)c2cn(-c3ccc(OC)c(F)c3)c(-c3ccc(C#N)c(F)c3)n2)C1` [Example 65, 2-Fluoro-4-[1-(3-fluoro-4-methoxyphenyl)-4-[(3S)-3-(methylamino)pyrrolidine-1-carbonyl]imidazol-2-yl]benzonitrile]: the IC50 in assay [1] and in assay [2] was less than 100 nM each time.
Regarding `COc1ccc(-n2c(-c3ccc(C#N)c(F)c3)nc(C(=O)N3CCC[C@@H](N)C3)c2Cl)cc1F` [Example 66, 4-[4-[(3R)-3-Aminopiperidine-1-carbonyl]-5-chloro-1-(3-fluoro-4-methoxyphenyl)imidazol-2-yl]-2-fluorobenzonitrile], the IC50 in assay [1] and in assay [2] was less than 100 nM each time.
Turning to `CN[C@H]1CCN(C(=O)c2nc(-c3ccc(C#N)c(F)c3)n(-c3ccc(OC)c(F)c3)c2F)C1` [Example 68, 2-Fluoro-4-[5-fluoro-1-(3-fluoro-4-methoxyphenyl)-4-[(3S)-3-(methylamino)pyrrolidine-1-carbonyl]imidazol-2-yl]benzonitrile], the IC50 in assay [1] and in assay [2] was less than 100 nM throughout.
Regarding `CN[C@H]1CCN(C(=O)c2nc(-c3ccc(C#N)c(F)c3)n(-c3ccc(OC)cc3)c2C)C1` [Example 69, 2-Fluoro-4-[1-(4-methoxyphenyl)-5-methyl-4-[(3S)-3-(methylamino)pyrrolidine-1-carbonyl]imidazol-2-yl]benzonitrile], the IC50 in assay [1] and in assay [2] was less than 100 nM in each case.
As to `CN[C@H]1CCN(C(=O)c2cn(-c3ccc(OC)cc3)c(-c3ccc(C#N)c(F)c3)n2)C1` [Example 71, 2-Fluoro-4-[1-(4-methoxyphenyl)-4-[(3S)-3-(methylamino)pyrrolidine-1-carbonyl]imidazol-2-yl]benzonitrile], the IC50 in assay [1] and in assay [2] was less than 100 nM in each case.
With `CN[C@@H]1CCCN(C(=O)c2cn(-c3ccc(OC)cc3)c(-c3ccc(C#N)c(F)c3)n2)C1` [Example 72, 2-Fluoro-4-[1-(4-methoxyphenyl)-4-[(3R)-3-(methylamino)piperidine-1-carbonyl]imidazol-2-yl]benzonitrile], the concentration for half-maximal inhibition (IC50) in assay [1] and in assay [2] was less than 100 nM in each case.
With `CN[C@H]1CCN(C(=O)c2nc(-c3ccc(C#N)c(F)c3)n(-c3ccc(OC)cc3)c2F)C1` [Example 73, 2-Fluoro-4-[5-fluoro-1-(4-methoxyphenyl)-4-[(3S)-3-(methylamino)pyrrolidine-1-carbonyl]imidazol-2-yl]benzonitrile], the IC50 in assay [1] and in assay [2] was less than 100 nM throughout.
Regarding `CN[C@@H]1CCCN(C(=O)c2nc(-c3ccc(C#N)c(F)c3)n(-c3ccc(OC)cc3)c2F)C1` [Example 74, 2-Fluoro-4-[5-fluoro-1-(4-methoxyphenyl)-4-[(3R)-3-(methylamino)piperidine-1-carbonyl]imidazol-2-yl]benzonitrile], the half-inhibitory concentration (IC50) in assay [1] and in assay [2] was less than 100 nM each time.
In the case of `Cn1cc2cc(-n3c(-c4ccc(C#N)c(F)c4)nc(C(=O)N4CCC[C@@H](N)C4)c3Cl)ccc2n1` [Example 75, 4-[4-[(3R)-3-Aminopiperidine-1-carbonyl]-5-chloro-1-(2-methylindazol-5-yl)imidazol-2-yl]-2-fluorobenzonitrile], the IC50 in assay [1] and in assay [2] was less than 100 nM in each case.
Regarding `Cn1cc2cc(-n3c(-c4ccc(C#N)c(F)c4)nc(C(=O)N4CCC[C@@H](N)C4)c3F)ccc2n1` [Example 77, 4-[4-[(3R)-3-Aminopiperidine-1-carbonyl]-5-fluoro-1-(2-methylindazol-5-yl)imidazol-2-yl]-2-fluorobenzonitrile], the IC50 in assay [1] and in assay [2] was less than 100 nM throughout.
For the compound `Cc1c(C(=O)N2CC[C@H](N)C2)nc(-c2ccc(C#N)c(F)c2)n1-c1ccc(C2CC2)nc1` [Example 79, 4-[4-[(3S)-3-Aminopyrrolidine-1-carbonyl]-1-(6-cyclopropylpyridin-3-yl)-5-methylimidazol-2-yl]-2-fluorobenzonitrile], the IC50 in assay [1] and in assay [2] was less than 100 nM each time.
In the case of `N#Cc1ccc(-c2nc(C(=O)N3CCC[C@@H](N)C3)c(Cl)n2-c2ccc(C3CC3)nc2)cc1F` [Example 80, 4-[4-[(3R)-3-Aminopiperidine-1-carbonyl]-5-chloro-1-(6-cyclopropylpyridin-3-yl)imidazol-2-yl]-2-fluorobenzonitrile], the IC50 in assay [1] is less than 100 nM; in assay [2], 100 to 1000 nM.
The like results for `N#Cc1ccc(-c2nc(C(=O)N3CC[C@H](N)C3)c(Cl)n2-c2ccc(C3CC3)nc2)cc1F` [Example 81, 4-[4-[(3S)-3-Aminopyrrolidine-1-carbonyl]-5-chloro-1-(6-cyclopropylpyridin-3-yl)imidazol-2-yl]-2-fluorobenzonitrile] were, in that order, less than 100 nM and less than 100 nM.
On the same counts, the results for `COc1ccc(-n2c(-c3ccc(C#N)c(F)c3)nc(C(=O)N[C@@H]3CCCNC3)c2Cl)cc1F` [Example 84, 5-Chloro-2-(4-cyano-3-fluorophenyl)-1-(3-fluoro-4-methoxyphenyl)-N-[(3R)-piperidin-3-yl]imidazole-4-carboxamide] are less than 100 nM and less than 100 nM.
The like results for `COc1ccc(-n2c(-c3ccc(C#N)c(F)c3)nc(C(=O)N[C@H]3CCCNC3)c2Cl)cc1F` [Example 85, 5-Chloro-2-(4-cyano-3-fluorophenyl)-1-(3-fluoro-4-methoxyphenyl)-N-[(3S)-piperidin-3-yl]imidazole-4-carboxamide] were, in that order, less than 100 nM and 100 to 1000 nM.
In the case of `COc1ccc(-n2c(-c3ccc(C#N)c(F)c3)nc(C(=O)N[C@@H]3CCCNC3)c2F)cc1F` [Example 86, 2-(4-Cyano-3-fluorophenyl)-5-fluoro-1-(3-fluoro-4-methoxyphenyl)-N-[(3R)-piperidin-3-yl]imidazole-4-carboxamide], the 50% inhibitory concentration (IC50) in assay [1] is less than 100 nM; in assay [2], 100 to 1000 nM.
The like results for `COc1ccc(-n2c(-c3ccc(C#N)c(F)c3)nc(C(=O)N3CC[C@H](N)C3)c2F)cc1F` [Example 89, 4-[4-[(3S)-3-Aminopyrrolidine-1-carbonyl]-5-fluoro-1-(3-fluoro-4-methoxyphenyl)imidazol-2-yl]-2-fluorobenzonitrile] were, in that order, less than 100 nM and 100 to 1000 nM.

(Values after US10626103B2, “Inhibitor of lysine specific demethylase-1” (CELGENE QUANTICEL RESEARCH, INC., priority 2014, dated 2020).)
